Reference: ChEMBL document CHEMBL1201862, “PubChem BioAssay data set” (2004)
Activity calls are given as the source filed them.

Legend:
[1] = THP-1 cell cytotoxicity, dose response, cytotoxicity control, set 3 (AID 504852); assay type: functional; conditions: Mycobacterium tuberculosis
[2] = molecular target: T1, High affinity choline transporter 1 (Homo sapiens, UniProt Q9GZV3); assay: CHT activators, dose response, cell-based, 10-point CRC, membrane potential dye (AID 602376); assay type: functional
T1 sequence (Q9GZV3 whole entry): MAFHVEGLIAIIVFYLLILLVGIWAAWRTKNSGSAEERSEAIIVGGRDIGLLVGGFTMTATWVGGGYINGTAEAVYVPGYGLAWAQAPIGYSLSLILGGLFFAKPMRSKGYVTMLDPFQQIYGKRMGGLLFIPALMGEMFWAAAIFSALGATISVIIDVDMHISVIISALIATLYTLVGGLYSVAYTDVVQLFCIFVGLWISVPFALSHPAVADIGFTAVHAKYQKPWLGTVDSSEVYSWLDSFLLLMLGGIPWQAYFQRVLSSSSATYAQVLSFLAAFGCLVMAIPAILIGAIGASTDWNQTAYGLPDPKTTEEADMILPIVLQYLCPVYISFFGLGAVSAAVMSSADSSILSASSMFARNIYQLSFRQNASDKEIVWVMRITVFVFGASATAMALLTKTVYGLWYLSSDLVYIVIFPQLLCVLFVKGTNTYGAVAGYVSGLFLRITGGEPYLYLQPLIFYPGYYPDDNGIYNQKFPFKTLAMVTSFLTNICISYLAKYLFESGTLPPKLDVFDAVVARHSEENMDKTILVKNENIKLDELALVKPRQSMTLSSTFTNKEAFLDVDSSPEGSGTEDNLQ

[3] = tested on: CHO-K1; assay: (§1) Counterscreen for antagonists of the orexin 1 receptor (OX1R; HCRTR1): Homogeneous time resolved fluorescence (HTRF)-based cell-based dose response assay to identify antagonists of the parental CHO-K1 cell line. [Related pubchem assays (depositor defined):AID434989, AID435008, AID463079, AID485270, AID492963, AID492964, AID492965, AID493232, AID504699, AID504701]; assay type: functional; conditions: Cricetulus griseus
[4] = as §1, with “Fluorescence-based” for “Homogeneous time resolved fluorescence (HTRF)-based”, “cell-based high throughput” for “cell-based”, “CHO” for “CHO-K1”; assay type: functional
[5] = molecular target: T2, Caspase-3 (Homo sapiens, UniProt P42574); assay type: functional;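 further: Dose-response selectivity test against caspase-3 for candidate inhibitors of sentrin-specific proteases (SENPs)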
T2 sequence (P42574 whole entry): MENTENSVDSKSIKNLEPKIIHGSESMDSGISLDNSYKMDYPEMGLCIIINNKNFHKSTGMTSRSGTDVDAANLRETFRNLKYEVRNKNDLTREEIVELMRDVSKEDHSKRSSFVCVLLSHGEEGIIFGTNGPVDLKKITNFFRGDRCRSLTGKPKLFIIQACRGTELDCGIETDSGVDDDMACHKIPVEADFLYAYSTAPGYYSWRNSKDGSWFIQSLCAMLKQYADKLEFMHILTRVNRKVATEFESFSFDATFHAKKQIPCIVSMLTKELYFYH

[6] = molecular target: T3, Orexin/Hypocretin receptor type 1 (Homo sapiens, UniProt O43613); assay: Homogeneous Time Resolved Fluorescence (HTRF)-based cell-based high throughput dose response assay for antagonists of the orexin 1 receptor (OX1R; HCRTR1). [Related pubchem assays (depositor defined):AID434989, AID435008, AID463079, AID485270, AID492963, AID492964, AID492965, AID493232, AID504717, AID504718]; assay type: functional
T3 sequence (O43613 whole entry): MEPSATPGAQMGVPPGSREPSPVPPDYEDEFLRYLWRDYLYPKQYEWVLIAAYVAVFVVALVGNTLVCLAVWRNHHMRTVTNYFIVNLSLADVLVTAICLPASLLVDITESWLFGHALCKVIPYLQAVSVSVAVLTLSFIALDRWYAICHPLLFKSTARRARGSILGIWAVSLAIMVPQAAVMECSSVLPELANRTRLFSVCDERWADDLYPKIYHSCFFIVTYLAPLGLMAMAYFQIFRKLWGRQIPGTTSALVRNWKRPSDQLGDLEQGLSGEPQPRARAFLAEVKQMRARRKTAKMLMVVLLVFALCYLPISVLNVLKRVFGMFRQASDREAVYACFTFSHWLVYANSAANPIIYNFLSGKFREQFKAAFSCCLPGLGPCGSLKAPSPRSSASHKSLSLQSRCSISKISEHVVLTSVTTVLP

[7] = molecular target: T4, Sentrin-specific protease 7 (Homo sapiens, UniProt Q9BQF6); assay type: functional;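 further: Luminescence-based dose-response confirmation of ultra-high-throughput screening hits, measuring inhibition of SENP7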
T4 sequence (Q9BQF6 whole entry): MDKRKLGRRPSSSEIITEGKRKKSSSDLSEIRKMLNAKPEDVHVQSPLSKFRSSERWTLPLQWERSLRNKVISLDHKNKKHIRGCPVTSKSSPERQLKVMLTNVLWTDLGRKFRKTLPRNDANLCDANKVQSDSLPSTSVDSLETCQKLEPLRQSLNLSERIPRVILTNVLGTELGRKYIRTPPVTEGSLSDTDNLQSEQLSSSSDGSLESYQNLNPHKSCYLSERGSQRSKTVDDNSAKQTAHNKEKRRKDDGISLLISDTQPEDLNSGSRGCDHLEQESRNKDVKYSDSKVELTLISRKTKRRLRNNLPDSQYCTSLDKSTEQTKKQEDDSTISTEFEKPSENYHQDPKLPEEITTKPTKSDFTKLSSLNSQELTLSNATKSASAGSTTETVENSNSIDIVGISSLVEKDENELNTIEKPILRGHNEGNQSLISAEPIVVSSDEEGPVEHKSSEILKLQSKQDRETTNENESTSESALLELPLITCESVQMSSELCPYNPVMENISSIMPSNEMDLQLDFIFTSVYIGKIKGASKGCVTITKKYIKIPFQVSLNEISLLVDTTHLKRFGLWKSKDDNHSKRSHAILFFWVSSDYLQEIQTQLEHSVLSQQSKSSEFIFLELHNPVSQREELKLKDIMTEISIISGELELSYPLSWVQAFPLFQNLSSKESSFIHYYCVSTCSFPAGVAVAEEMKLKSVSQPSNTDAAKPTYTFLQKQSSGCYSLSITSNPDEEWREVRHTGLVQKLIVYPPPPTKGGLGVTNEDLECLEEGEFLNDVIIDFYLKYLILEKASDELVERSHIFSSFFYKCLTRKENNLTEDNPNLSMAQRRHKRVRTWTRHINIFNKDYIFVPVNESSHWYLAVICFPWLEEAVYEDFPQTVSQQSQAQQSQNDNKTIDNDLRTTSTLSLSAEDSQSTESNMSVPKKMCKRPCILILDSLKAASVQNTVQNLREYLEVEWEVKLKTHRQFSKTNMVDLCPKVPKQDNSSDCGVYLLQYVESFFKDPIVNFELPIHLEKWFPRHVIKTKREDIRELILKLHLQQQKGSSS

[8] = molecular target: T5, Sentrin-specific protease 6 (Homo sapiens, UniProt Q9GZR1); assay type: functional;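 further: Luminescence-based dose-response confirmatory assay of SENP6 inhibition, following up an ultra-high-throughput screen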
T5 sequence (Q9GZR1 whole entry): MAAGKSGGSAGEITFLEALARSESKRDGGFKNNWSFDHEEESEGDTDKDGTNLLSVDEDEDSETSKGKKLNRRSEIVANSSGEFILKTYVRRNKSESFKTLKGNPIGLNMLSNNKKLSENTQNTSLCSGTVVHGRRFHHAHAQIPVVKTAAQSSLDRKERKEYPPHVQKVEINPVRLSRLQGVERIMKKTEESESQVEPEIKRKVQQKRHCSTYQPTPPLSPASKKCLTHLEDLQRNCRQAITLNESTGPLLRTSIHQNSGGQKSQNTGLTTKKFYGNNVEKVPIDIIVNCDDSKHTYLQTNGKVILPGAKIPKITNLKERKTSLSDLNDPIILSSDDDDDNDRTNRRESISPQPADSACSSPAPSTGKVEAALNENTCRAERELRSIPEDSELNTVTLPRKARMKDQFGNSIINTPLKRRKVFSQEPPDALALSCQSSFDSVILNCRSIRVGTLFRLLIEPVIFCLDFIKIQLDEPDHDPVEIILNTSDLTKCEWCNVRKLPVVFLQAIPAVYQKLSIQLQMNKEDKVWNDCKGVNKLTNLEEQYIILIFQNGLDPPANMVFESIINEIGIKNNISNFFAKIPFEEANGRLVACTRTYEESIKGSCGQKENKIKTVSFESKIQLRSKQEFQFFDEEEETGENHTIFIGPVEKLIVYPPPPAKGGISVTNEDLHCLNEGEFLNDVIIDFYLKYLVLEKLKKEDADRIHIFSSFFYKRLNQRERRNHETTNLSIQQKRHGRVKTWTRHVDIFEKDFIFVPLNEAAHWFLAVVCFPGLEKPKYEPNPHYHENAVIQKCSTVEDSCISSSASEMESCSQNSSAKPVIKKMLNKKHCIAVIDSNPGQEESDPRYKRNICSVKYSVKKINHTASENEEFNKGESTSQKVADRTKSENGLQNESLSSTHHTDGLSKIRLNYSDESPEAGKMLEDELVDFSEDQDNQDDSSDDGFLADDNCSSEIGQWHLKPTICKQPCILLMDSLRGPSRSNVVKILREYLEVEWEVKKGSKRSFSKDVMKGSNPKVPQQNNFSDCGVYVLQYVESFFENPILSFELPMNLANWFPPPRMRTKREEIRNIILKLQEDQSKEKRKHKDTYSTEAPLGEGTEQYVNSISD

[9] = molecular target: T6, Sentrin-specific protease 8 (Homo sapiens, UniProt Q96LD8); assay type: functional;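 further: luminescence read-out of SENP8 inhibition, dose-response confirmation following an ultra-high-throughput screen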
T6 sequence (Q96LD8 whole entry): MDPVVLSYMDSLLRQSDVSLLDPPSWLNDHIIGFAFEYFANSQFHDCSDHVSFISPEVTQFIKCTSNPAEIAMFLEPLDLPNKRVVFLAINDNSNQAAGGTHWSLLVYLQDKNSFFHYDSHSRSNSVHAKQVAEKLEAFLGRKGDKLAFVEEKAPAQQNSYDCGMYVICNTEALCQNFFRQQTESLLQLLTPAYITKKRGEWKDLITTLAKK

[10] = molecular target: T3, Orexin/Hypocretin receptor type 1; assay: Fluorescence-based cell-based high throughput dose response assay for antagonists of the orexin 1 receptor (OX1R; HCRTR1). [Related pubchem assays (depositor defined):AID434989, AID435008, AID463079, AID485270, AID492963, AID492964, AID492965, AID493232, AID504717, AID504718]; assay type: functional
[11] = molecular target: T7, Orexin receptor type 2 (Homo sapiens, UniProt O43614); assay: Counterscreen assay for antagonists of the orexin 1 receptor (OX1R; HCRTR1): Fluorescence-based cell-based dose response assay for antagonists of the orexin 2 receptor (OX2R; HCRTR2), run by assay provider.; assay type: functional
T7 sequence (O43614 whole entry): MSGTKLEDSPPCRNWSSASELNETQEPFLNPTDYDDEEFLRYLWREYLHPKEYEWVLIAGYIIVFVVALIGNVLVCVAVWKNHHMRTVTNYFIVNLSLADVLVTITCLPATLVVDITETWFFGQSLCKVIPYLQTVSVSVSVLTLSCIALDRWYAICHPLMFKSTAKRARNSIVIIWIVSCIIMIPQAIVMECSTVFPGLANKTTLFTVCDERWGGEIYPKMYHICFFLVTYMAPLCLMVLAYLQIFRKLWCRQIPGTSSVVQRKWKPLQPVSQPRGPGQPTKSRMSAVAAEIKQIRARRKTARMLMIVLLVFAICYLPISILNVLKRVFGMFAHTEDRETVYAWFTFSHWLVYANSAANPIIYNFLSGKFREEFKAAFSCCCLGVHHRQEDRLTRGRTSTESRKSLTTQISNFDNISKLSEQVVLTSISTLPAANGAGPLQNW

[12] = molecular target: T7, Orexin receptor type 2; assay: Counterscreen assay for antagonists of the orexin 1 receptor (OX1R; HCRTR1): Homogeneous Time Resolved Fluorescence (HTRF)-based cell-based dose response assay for antagonists of the orexin 2 receptor (OX2R; HCRTR2), run by assay provider.; assay type: functional
[13] = A cell-based HTS for delayed death inhibitors of the malarial parasite plastid Measured in Microorganism System Using Plate Reader - 2126-02_Inhibitor_Dose_DryPowder_Activity.; assay type: functional, organism-based
[14] = A cell-based HTS for delayed death inhibitors of the malarial parasite plastid Measured in Microorganism System Using Plate Reader - 2126-01_Inhibitor_Dose_DryPowder_Activity.; assay type: functional, organism-based

## CCC(Sc1nc2ccccc2c(=O)[nH]1)C(=O)NC1CCCCC1 (centres undefined)
[1]
  CC50: > 100 µM (active)

## CN(CC(=O)Nc1ccc(F)c(F)c1F)C(=O)c1cc(-c2ccncc2)nc2ccccc12
[2]
  EC50: 14.6 µM (active)

## COc1ccc(/C=C/c2n[nH]c(-c3ccccc3O)n2)cc1OC
[3]
  IC50: > 66.2 µM (inactive)
[4]
  IC50: > 49.8 µM (inactive)
[5]
  IC50: 58.8 µM (active)
[6]
  IC50: 2.51 µM (active)
[7]
  IC50: 4.7 µM (active)
[8]
  IC50: 13.6 µM (active)
[9]
  IC50: 12.7 µM (active)
[10]
  IC50: 3.21 µM (active)
[11]
  IC50: > 88.8 µM (inactive)
[12]
  IC50: > 50 µM (inactive)

## CC(C)NC(=O)Nc1ccc2c(c1)C(=O)N([C@@H](C)CO)C[C@@H](C)[C@H](CN(C)S(=O)(=O)c1ccc(F)cc1)OCCCC[C@H](C)O2
[13]
  AC50: 0.765 µM (active)
[14]
  AC50: 0.71 µM (active)
